From PubChem BioAssay AID179 (DTP/NCI, 2004) come the findings set out here.

Structures are written as SMILES. Activity calls are given as the source filed them.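 Rule for the calls: active = compounds giving half or more protection of infected cells from virus-caused growth loss, again on retest; inactive = the rest.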 Some results are limits rather than exact numbers.

The assay relates to CEM cells HIV-1 protection, formazan growth assay. Put plainly: NCI AIDS Antiviral Assay. The conditions noted are these: for IC50: measured here: growth of uninfected CEM cells. Summed up:
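Five concentrations of each compound were applied to infected and uninfected human CEM cells. Protection from HIV-1 was judged from growth measured with a soluble formazan assay.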

Regarding `O=C(NNc1nc2ccccc2n2cccc12)Nc1ccc(Br)cn1`, the EC50 was above 200 µM and the IC50 worked out at 46.8 µM.
`C[N+]1(CC(=O)O)C2CCC1CC(O)C2` (stereo not drawn): the EC50 is above 200 µM and the IC50 is above 200 µM.
Regarding `CCCc1c(O)nc(Nc2nc3ccccc3[nH]2)[nH]c1=O`, the EC50 is above 200 µM and the IC50 was 63.1 µM.
As for `COC(=O)/C=C/COCC1C2CCC(=O)C21` (stereo not drawn), the EC50 is above 151 µM and the IC50 is above 151 µM.
For `COc1ccc(-c2cc(=O)c3c(O)cc(O)c(-c4cc(-c5cc(=O)c6c(O)cc(OC)cc6o5)ccc4OC)c3o2)cc1`, the EC50 is above 200 µM and the concentration for half-maximal inhibition (IC50) worked out at 107 µM.
Take `CCCC(=O)NC(Nc1cc(C)ccn1)(C(=O)OCC)C(F)(F)F` (stereo not drawn): the EC50 was 105 µM and the IC50 worked out at 501 µM.
For `Cc1cc(=O)[nH]c2cc(NC(=O)C(CCCN=C(N)N)NC(=O)OCc3ccccc3)ccc12` (stereo not drawn), the EC50 is above 200 µM and the IC50 is above 200 µM.
`O=C(O)c1nc(-c2ccccc2)ncc1-c1nnnn1-c1ccccc1`: the EC50 was above 200 µM and the IC50 is above 200 µM.
`CC1CN=C(N(Cc2ccccc2)C(=O)Nc2ccc(Cl)c(Cl)c2)S1` (stereo not drawn): the EC50 is above 200 µM and the IC50 was determined as 67.6 µM.
In the case of `CNc1ccc(S(=O)Nc2ccc(OC)cc2)cc1` (stereo not drawn), the EC50 was above 200 µM and the IC50 was determined as 17.8 µM.
As for `COCOC1/C=C/CCCCC(=O)C(C)C#CC1` (stereo not drawn), the EC50 was above 200 µM and the half-inhibitory concentration (IC50) is 7.24 µM.
Take `CC(=O)N1C(Nc2cnc3ccccc3c2)CCN1c1ccccc1` (stereo not drawn): the EC50 is above 200 µM and the IC50 was determined as 17.8 µM.
As for `COc1ccccc1/C=C(\NC(=O)c1ccccc1)c1nc2ccc(Cl)cc2[nH]1`, the EC50 is above 46.8 µM and the IC50 was above 46.8 µM.
Consider `COC1(OC)C=NNc2nccn21`, for which the EC50 was above 200 µM and the IC50 was above 200 µM.
In the case of `Cc1cc(CO)c(O)c(CN(CCO)CCO)c1`, the EC50 is above 200 µM and the IC50 is 20.4 µM.
With `NS(=O)(=O)c1cc2c(cc1Cl)NC(CC1CCCC1)NS2(=O)=O` (stereo not drawn), the EC50 is above 200 µM and the IC50 is above 200 µM.
Regarding `CC(=O)OCC1OC(n2ccc(-n3cncn3)nc2=O)CC1N=[N+]=[N-]` (stereo not drawn), the half-maximal effective concentration (EC50) is 87.1 µM and the IC50 was above 200 µM.
As to `Cc1nc(C)c(N2CCN(C(=O)NC(CCC(=O)O)C(=O)O)CC2)c(=O)[nH]1` (stereo not drawn), the EC50 is above 200 µM and the IC50 was above 200 µM.
Regarding `C=CC(=O)N1C/C(=C\c2ccc(F)cc2)C(=O)/C(=C/c2ccc(F)cc2)C1`, the EC50 is above 0.2 µM and the IC50 was 0.162 µM.
For `CCCCc1ccc(-n2sc3ncccc3c2=O)cc1`, the EC50 is 1.74 µM and the IC50 is 8.32 µM.
For the molecule `N#CC(C#N)=Cc1ccc2c(c1)OC(Cl)O2` (stereo not drawn), the outcome was inactive.
With `N#CC1=C(Nc2ccccc2)SC=C(c2ccccc2)NC1=NCc1ccccc1`, the EC50 was above 200 µM and the IC50 was 97.7 µM.
For the molecule `OC1COCOC1C(O)C1OCOCC1O` (stereo not drawn), the EC50 is above 200 µM and the IC50 is above 200 µM.
For the molecule `O=C(C1C(c2ccccc2)N1C(c1ccccc1)c1ccccc1)C1C(c2ccccc2)N1C(c1ccccc1)c1ccccc1` (stereo not drawn), the EC50 was above 3.39 µM and the IC50 is above 3.39 µM.
For `CC(=O)NC1C(=O)N([C@H](COCc2ccccc2)c2ccccc2)[C@@H]1COC(C)(C)C` (stereo partly drawn), the EC50 was above 295 µM and the IC50 worked out at 186 µM.
The like results for `O=C(Cc1nc2ccc([N+](=O)[O-])cc2[nH]c1=O)C(=O)Nc1cc(Cl)c(Cl)cc1Cl` were, in that order, above 29.5 µM and 11.2 µM.
`COC(OC)C1(c2ccccc2)Oc2ccccc2C1=O` (stereo not drawn): the EC50 was above 166 µM and the IC50 was 81.3 µM.
For the molecule `O=C1NN=C(C2CCCCC2)C12CCCCC2`, the EC50 is above 214 µM and the concentration for half-maximal inhibition (IC50) stood at 67.6 µM.
Take `S=c1[nH]nc(Nc2ccc(Cl)cc2)s1`: the EC50 was above 200 µM and the IC50 was found to be 79.4 µM.
As to `CC1OC(OC2C(O[C@H]3CC[C@@]4(C)C(=CC[C@H]5[C@@H]6C[C@@H]7O[C@]8(CC[C@H](C)CN8)[C@@H](C)[C@@H]7[C@@]6(C)CC[C@@H]54)C3)OC(CO)C(O)C2OC2OC(CO)C(O)C(O)C2O)C(O)C(O)C1O` (stereo partly drawn), the outcome was inactive.
With `Cc1ccc(Nc2nc3c(s2)C(=O)c2ccccc2C3=O)c(C)c1`, the EC50 is above 30.2 µM and the 50% inhibitory concentration (IC50) is 15.8 µM.
Turning to `COc1c(N2CCCCC2)c2c(=O)c3ccccc3oc2c2c3ccccc3n(C)c12`, the EC50 was 170 µM and the IC50 stood at 195 µM.
The like results for `COc1cc2c(oc(=O)c3c4occc4cc(OC)c23)c2cccc(OCc3ccccc3)c12` were, in that order, above 1.15 µM and above 1.15 µM.
With `COc1cc(/C=C2\CCC(C)/C(=C\c3cc(OC)c(OC)c(OC)c3)C2=O)cc(OC)c1OC` (stereo not drawn), the EC50 was above 200 µM and the IC50 came out at 7.24 µM.
`Cc1ccc(NC(=O)CC2C(=O)Nc3ccccc3S2=O)cc1C` (stereo not drawn): the EC50 was above 15.1 µM and the IC50 was above 15.1 µM.
`CC1=C(C(=O)Nc2cc(=O)n(C)c(=O)n2C)C(c2cccc([N+](=O)[O-])c2)C(C(=O)Nc2cc(=O)n(C)c(=O)n2C)=C(C)N1`: the EC50 is above 31.6 µM and the IC50 is above 31.6 µM.
With `O=C(Oc1ccccc1)N(CCO)C(c1ccccc1)C(O)c1ccccc1` (stereo not drawn), the EC50 was above 200 µM and the IC50 came out at 5.25 µM.
Consider `CCNC(=S)N/N=C/c1cc(OC)ccc1O`, for which the EC50 is above 200 µM and the IC50 was found to be 107 µM.
`CN1C(=O)c2ccccc2C(C(=O)O)C1c1ccc2c(c1)OCO2` (stereo not drawn): the EC50 is above 151 µM and the IC50 is above 151 µM.
Take `COc1ccc2c(=O)c3ccccc3oc2c1`: the EC50 was above 200 µM and the concentration for half-maximal inhibition (IC50) is 97.7 µM.
`COc1cc(CN=c2nc(N(C)C)ss2)cc(OC)c1OC`: the EC50 was above 100 µM and the IC50 is 6.92 µM.
Take `CC(=O)Nc1ccc(C(O)/C(=N/N)c2nc3ccc(Cl)cc3[nH]c2=O)cc1` (stereo not drawn): the EC50 is above 162 µM and the IC50 is above 162 µM.
Turning to `CCOC(=O)/C(=C\c1ccc2ccccc2c1)P(=O)(OCC)OCC`, the EC50 was above 186 µM and the IC50 amounted to 5.37 µM.
Take `C#CC1(O)CCC2C3CCc4cc(Oc5nc(F)nc(-c6c7ccccc7c7sc8ccccc8n67)n5)ccc4C3CC[C@@]21C` (stereo partly drawn): the EC50 was above 200 µM and the IC50 was 115 µM.
For the molecule `O=C(CCN1CCN(c2cccc(Cl)c2)CC1)N1CCc2c([nH]c3ccccc23)C1c1cccnc1` (stereo not drawn), the EC50 was above 10.5 µM and the IC50 was above 10.5 µM.
Take `C/C(=N\NC(=O)CC(=O)Nc1ccccc1Cl)c1cc2cc(N=Nc3ccccc3Cl)ccc2oc1=O`: the EC50 is above 18.6 µM and the IC50 is above 18.6 µM.
As to `CSc1nc(-c2ccc(Cl)cc2)c(C#N)c(=O)[nH]1`, the result was inactive.
Consider `O=C(O)CSC(=O)Nc1ccc(N=Nc2ccccc2)cc1`, for which the result was inactive.
In the case of `CSc1nc(=O)cnn1C`, the EC50 was above 200 µM and the IC50 was above 200 µM.
Regarding `Cn1c(=O)oc2cc(Br)ccc21`, the EC50 is above 200 µM and the IC50 was above 200 µM.
Regarding `O=c1c2sc3nc(NCCN4CCCCC4)ncc3c2ncn1-c1ccccc1`, the EC50 was above 200 µM and the IC50 is 117 µM.
